Results taken from patent US11419902B2, “Compositions comprising bacterial strains” (4D Pharma Research Limited, priority 2018, dated 2022).

Tests used:
β3Tubulin = β3Tubulin expression in SH-SY5Y cells (immunostaining, immunoblotting); type: cell-based; conditions: undifferentiated SH-SY5Y cells, 10% bacterial supernatant 24 h, vs untreated cells
Procedure: Cells were seeded onto 8-well chamber slides (Marienfeld Laboratory Glassware) at 5×10^4 cells/well overnight and were treated with 10% bacterial supernatant for 24 h. For differentiation, cells were treated with 10 nM RA for 5 days before treating with cell-free bacterial supernatant for 24 h.
Afterwards, the cells were fixed with 4% paraformaldehyde in PBS for 20 minutes at room temperature (RT). Fixed cells were washed with PBS, and permeabilized with 1% Triton X-100 in PBS for 10 minutes. After washing with PBS, the slides were incubated with blocking buffer (4% BSA/PBS) for 1 h at RT before adding anti-MAP2 antibody or β3-tubulin (sc-74421 and sc-80005 respectively, Santa Cruz Biotechnology Inc) diluted in 1% BSA/PBS for 12 h at 4° C. They were then washed twice with PBS, followed by incubation with Alexa Flour 488 conjugated anti-mouse (Molecular Probes Inc) and Alexa Flour 594 conjugated Phalloidin (ab176757, Abcam) for 1 h at RT. […]
SH-SY5Y cells cultured under the indicated conditions described above, treated with MRx0029 for 24 h and then lysed in RIPA buffer containing cocktail of protease inhibitors (Roche Diagnostics, UK). […] The blots were then incubated with the appropriate horseradish peroxidase (HRP)-conjugated secondary antibody, and proteins were detected by chemiluminescence detection kit (Pierce Biotechnology, Rockford, Ill.). […]

Caspase 3 (Casp3) = experiment: Caspase 3 expression in SH-SY5Y cells; type: cell-based; conditions: undifferentiated SH-SY5Y cells, vs control
From the text: The inventors measured the change in Casp3 expression in neuroblastoma cells.

PBMCs = experiment: Basic cell phenotyping on PBMCs from healthy donors (flow cytometry); type: cell-based
Procedure: Frozen healthy human PBMCs were purchased from Stem Cells Technologies (Cambridge UK). Briefly cells were thaw and left to rest overnight in full growth media (RPMI 1640 with 10% FBS, 2 mM L. Glutamine, 55 μM 2-Mercapoethanol and 100 U/ml penicillin, 100 μg/ml streptomycin) in CO2 incubator at 37° C. For the experiment cells were plated at a density of 750,000 Cell/well in 48 well plates and treated in full growth media with 10% bacteria supernatants in the presence or absence of 1 ng/ml LPS. Cell culture media was added to untreated wells. Cells were left to rest for 72 h, thereafter cell free supernatants were collected and spun down for 3 minutes at 10,000 g at 4° C. Samples were stored at −80° C. for cytokine analysis.
1.5×10^6 cells per sample were stained with viability fixable dye (Miltenyi) to discriminate between live and dead cells for 10 min at RT. Afterwards the cells were stained with the cocktail of antibodies listed below (Miltenyi) for basic immunophenotyping (CD3/CD4/CD8/CD25/CD127 and CD19) and incubated for 10 min at RT.
Experiments were carried out to measure the percentage of the following cell populations: • CD4+CD3+ cells (markers of CD4 T-helper cells) • CD4+CD25+ cells (markers of CD4+ activated cells) • CD25++[…] cells out of the CD4+ cell population (markers of Tregs cells) • CD8+CD3+ cells (markers of cytotoxic T cells) • CD25+CD8+ cells (markers of CD8+ activated cells) • CD19+CD3− cells (markers of B cells).
The ratio of CD8+/Tregs and the ratio of activated CD8/Treg cells were determined.
Flow cytometry analysis of different cell populations 1.5×10^6 cells per sample were stained with viability fixable dye (Miltenyi) to discriminate between live and dead cells for 10 min at RT. Afterwards the cells were stained with the cocktail of antibodies listed below (Miltenyi) for basic immunophenotyping (CD3/CD4/CD8/CD25/CD127 and CD19) and incubated for 10 min at RT. Cells were then washed and resuspended in PBS and immediately analysed using a FACS Aria II equipped with Blue (488 nm), Red (633 nm) and Violet (405 nm) lasers. FMOs were included throughout all the experiments. For the analysis Flowjo version 10.4.2 software (FlowJo, LLC) was used.

IL-8 = IL-8 secretion in HMC3 cells (ELISA); type: cell-based, Human; conditions: 10% cell-free supernatant 24 h, in the absence of stimulation (no TNF-α)
Procedure: Human microglia HMC3 cells were grown in glutamine-supplemented EMEM media containing 15% heat inactivated FBS and 100 U/ml penicillin and 100 μg/ml streptomycin. HMC3 cells were plated in 24 well plates at a density of 50,000 cells/well. Cells were left in CO2 incubator to rest for 48 h. The cells were then washed in blank EMEM and pre-treated in 2% FBS growth media with 10 ng/ml TNF-α for 1 h. Thereafter 10% cell-free bacterial supernatants for NCIMB 42787 stationary growth cultures (isolated as described above) were added to TNF-α-treated and untreated wells and incubated in CO2 incubator at 37° C. for 24 h. Cell-free supernatants were collected and centrifugated at 10,000×g for 3 min and 4° C. Samples were aliquoted in 1.5 ml microtubes and stored in −80° C. for hIL-8 ELISA.
Secretion of IL-8 was analysed using hIL-8 Standard ELISA Kits, according to the manufacturer's protocol in the cell-free supernatants from HMC3 cells treated as described above. Samples were measured at 405 nm with correction wavelength set at 655 nm on a microplate reader (iMark, Bio-Rad). Raw data were plotted and analysed using GraphPad Prism 7 software.

## Megasphaera massiliensis MRx0029
β3Tubulin
  expression of β3Tubulin: increases the expression of β3Tubulin
Caspase 3 (Casp3)
  expression of Casp3: increased the expression of Casp3 threefold
PBMCs; 10% bacteria supernatant, 72 h
  percentage of B cells: did not significantly change
  percentage of CD4+ activated cells: did not significantly change
  percentage of CD4 T-helper cells: did not significantly change
  percentage of CD8+ activated cells: did not significantly change
  percentage of CD25++CD17− cells (Tregs): selectively reduced the percentage of Tregs
  percentage of cytotoxic T cells: did not significantly change
PBMCs; vs untreated cells
  ratio of CD8+/Tregs: increased the ratio of CD8+/Tregs
  ratio of activated CD8/Treg cells: increased
IL-8
  IL-8 secretion: induces IL-8 secretion
